Laboratory results: patent US20210395239A1 (Hoffmann-La Roche Inc., priority 2018, published 2021)

Tests used:
hERG channel = target: T1, hERG channel (Homo sapiens, UniProt Q12809); assay: hERG channel inhibition assay (patch-clamp, CHOhERG cells); format: cell-based
T1 construct: expressed in transfected cells; host or cells: CHO (Chinese hamster ovary)
Description: hERG Channel Inhibition Assay:
The hERG K^+ channels were cloned in humans and stably expressed in a CHO (Chinese hamster ovary) cell line. CHOhERG cells were used for patch-clamp (voltage-clamp, whole-cell) experiments. Cells were stimulated by a voltage pattern to activate hERG channels and conduct IKhERG currents (rapid delayed outward rectifier potassium current of the hERG channel). After the cells were stabilized for a few minutes, the amplitude and kinetics of IKhERG were recorded at a stimulation frequency of 0.1 Hz, (6 bpm). Thereafter, the test compound was added to the preparation at increasing concentrations. For each concentration, an attempt was made to reach a steady-state effect, usually, this was achieved within 3-10 min at which time the next highest concentration was applied. The amplitude and kinetics of IKhERG are recorded in each concentration of the drug which were compared to the control values (taken as 100%). (references: Redfern W S, Carlsson L, Davis A S, Lynch W G, MacKenzie I, Palethorpe S, Siegl P K, Strang I, Sullivan A T, Wallis R, Camm A J, Hammond T G. 2003; Relationships between preclinical cardiac electrophysiology, clinical QT interval prolongation and torsade de pointes for a broad range of drugs: evidence for a provisional safety margin in drug development. Cardiovasc. Res. 58:32-45, Sanguinetti M C, Tristani-Firouzi M. 2006; hERG potassium channels and cardiac arrhythmia. Nature 440:463-469, Webster R, Leishman D, Walker D. 2002; Towards a drug concentration effect relationship for QT prolongation and torsades de pointes. Curr. Opin. Drug Discov. Devel. 5:116-26).

CYP2C9 = target: T2, CYP2C9 (Homo sapiens, UniProt P11712); assay: CYP inhibition assay in human liver microsome, CYP2C9; format: in vitro ADME; details: human, human liver microsomes, probe diclofenac 5 μM, substrate diclofenac 5 μM, first value of 2C9/2D6/3A4
T2 construct: tissue BD-Gentest 452117; host or cells: human liver microsomes
T2 sequence (P11712 whole entry): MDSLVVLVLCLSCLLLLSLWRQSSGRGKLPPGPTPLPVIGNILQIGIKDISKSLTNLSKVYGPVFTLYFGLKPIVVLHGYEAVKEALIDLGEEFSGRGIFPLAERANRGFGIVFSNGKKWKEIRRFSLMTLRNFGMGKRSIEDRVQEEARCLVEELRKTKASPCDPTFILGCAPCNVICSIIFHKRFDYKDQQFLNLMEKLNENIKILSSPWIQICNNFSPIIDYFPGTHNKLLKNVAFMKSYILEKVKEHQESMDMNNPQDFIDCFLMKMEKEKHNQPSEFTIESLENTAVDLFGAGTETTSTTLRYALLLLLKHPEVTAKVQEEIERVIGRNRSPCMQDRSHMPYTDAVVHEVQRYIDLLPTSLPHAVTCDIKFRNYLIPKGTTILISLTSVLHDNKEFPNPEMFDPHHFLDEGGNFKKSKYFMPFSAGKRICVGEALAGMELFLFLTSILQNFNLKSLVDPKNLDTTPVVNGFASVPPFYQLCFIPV
Description: (§1) This is a high throughput screening assay used for assessment of reversible inhibition of CYP2C9, CYP2D6, and CYP3A4 activity of test compounds in human liver microsome (HLM) in early discovery stage.
(§2) 10 mM DMSO stock solutions of test compounds were diluted in DMSO to generate 2 mM intermediate stock solution. 250 nL, of intermediate stock solution were transferred in duplicate into 3 separate 384 well microtitre plates (assay-ready plates). A mixture of HLM and each substrate was made up. 45 μL of HLM substrate mix was then transferred to each well of an assay ready plate and mixed. The negative (solvent) and positive controls (standard inhibitor for each CYP) were included in each assay ready plate. The assay ready plate was warmed to 37° C. in an incubator over 10 minutes. 5 μL pre-warmed NADPH regenerating system was added to each incubation well to start the reaction. Final incubation volume was 50 μL. The assay plate then was placed back in the 37° C. incubator. After incubation (10 minutes for CYP2D6) for 5 minutes, incubates were quenched by addition of 50 μL 100% acetonitrile containing internal standards (400 ng/mL 13C6-4′-OH-Diclofenac, 20 ng/mL D3-Dextrorphan and 20 ng/mL D4-1′OH-Midazolam). The supernatants were collected for RapidFire/MS/MS analysis.
(§3) RapidFire online solid phase extraction/sample injection system (Agilent) coupled with API4000 triple quadrupole mass spectrometer (AB Sciex) were used for sample analysis. The mobile phase composed of acetonitrile and water supplemented with 0.1% formic acid. A C4 solid phase extraction cartridge is used for sample separation. MS detection is achieved in positive ion MRM mode.
(§4) Peak areas for substrate, metabolite and internal standard are determined using the RapidFire integrator software (version 3.6.12009.12296). Peak area ratios (PAR) of metabolite and internal standard (stable-labelled metabolite) are then calculated. The measurement window for each experiment is then defined:
(§5) PAR (0% activity)=average PAR for all incubations containing concentrated inhibitor; Par (100% activity)=average PAR for all incubations containing no inhibitor (DMSO controls); % Activity (test inhibitor)=[PAR (test inhibitor)−PAR (0% activity)]/[PAR (100% activity)−PAR (0% activity)]; % Inhibition (test inhibitor)=100-% Activity (test inhibitor).

hTLR9 = target: T3, hTLR9 (Homo sapiens, UniProt Q9NR96); design: host or cells: HEK; details: data disclosed in US20150105370; read-out: HEK/hTLR9 IC50; cited from earlier work
T3 sequence (Q9NR96 26-1032): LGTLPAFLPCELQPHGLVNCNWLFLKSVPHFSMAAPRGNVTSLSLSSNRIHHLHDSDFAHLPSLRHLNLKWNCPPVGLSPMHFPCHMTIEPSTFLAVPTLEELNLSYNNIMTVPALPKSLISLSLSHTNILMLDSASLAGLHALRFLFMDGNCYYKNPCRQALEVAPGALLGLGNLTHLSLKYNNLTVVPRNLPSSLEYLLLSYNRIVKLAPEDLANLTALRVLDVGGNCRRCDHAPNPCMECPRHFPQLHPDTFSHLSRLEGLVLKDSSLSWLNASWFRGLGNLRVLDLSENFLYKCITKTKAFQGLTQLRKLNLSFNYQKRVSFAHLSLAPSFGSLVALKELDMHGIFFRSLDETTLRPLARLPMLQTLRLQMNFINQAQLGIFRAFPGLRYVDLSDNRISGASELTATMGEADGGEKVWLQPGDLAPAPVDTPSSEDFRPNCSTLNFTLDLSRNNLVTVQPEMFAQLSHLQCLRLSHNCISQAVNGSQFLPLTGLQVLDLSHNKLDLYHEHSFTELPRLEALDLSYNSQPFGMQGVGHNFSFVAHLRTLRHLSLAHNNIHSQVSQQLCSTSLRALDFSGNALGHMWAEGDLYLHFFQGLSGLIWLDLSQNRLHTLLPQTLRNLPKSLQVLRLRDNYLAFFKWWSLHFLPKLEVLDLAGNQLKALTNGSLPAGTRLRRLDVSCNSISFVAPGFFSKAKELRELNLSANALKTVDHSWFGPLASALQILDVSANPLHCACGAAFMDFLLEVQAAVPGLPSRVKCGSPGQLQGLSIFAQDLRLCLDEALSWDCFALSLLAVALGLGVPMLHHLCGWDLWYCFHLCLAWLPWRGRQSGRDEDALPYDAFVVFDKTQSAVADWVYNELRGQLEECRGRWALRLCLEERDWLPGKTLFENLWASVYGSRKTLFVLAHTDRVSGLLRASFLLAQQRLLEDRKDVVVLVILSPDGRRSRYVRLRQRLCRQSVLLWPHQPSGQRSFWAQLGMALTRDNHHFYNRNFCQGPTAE

CYP3A4 = target: T4, CYP3A4 (Homo sapiens, UniProt P08684); assay: CYP inhibition assay in human liver microsome, CYP3A4; format: in vitro ADME; details: human, human liver microsomes, probe midazolam 5 μM, substrate midazolam 5 μM, third value of 2C9/2D6/3A4
T4 construct: tissue BD-Gentest 452117; host or cells: human liver microsomes
T4 sequence (P08684 whole entry): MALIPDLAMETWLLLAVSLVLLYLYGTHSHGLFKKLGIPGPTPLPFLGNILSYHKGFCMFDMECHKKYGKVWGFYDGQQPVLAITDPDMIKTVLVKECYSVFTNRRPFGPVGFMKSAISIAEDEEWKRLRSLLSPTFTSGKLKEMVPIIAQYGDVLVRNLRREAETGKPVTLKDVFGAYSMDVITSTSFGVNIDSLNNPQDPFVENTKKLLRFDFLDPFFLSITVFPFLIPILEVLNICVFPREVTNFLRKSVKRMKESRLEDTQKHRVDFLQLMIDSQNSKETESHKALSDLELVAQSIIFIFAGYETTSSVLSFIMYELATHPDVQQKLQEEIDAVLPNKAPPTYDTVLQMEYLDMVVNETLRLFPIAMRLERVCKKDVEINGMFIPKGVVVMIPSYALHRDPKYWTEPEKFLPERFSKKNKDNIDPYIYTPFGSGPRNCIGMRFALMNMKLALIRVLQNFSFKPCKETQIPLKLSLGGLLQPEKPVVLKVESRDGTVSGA
Description: as §1, §2, §3, §4, §5

T1 sequence (Q12809 whole entry): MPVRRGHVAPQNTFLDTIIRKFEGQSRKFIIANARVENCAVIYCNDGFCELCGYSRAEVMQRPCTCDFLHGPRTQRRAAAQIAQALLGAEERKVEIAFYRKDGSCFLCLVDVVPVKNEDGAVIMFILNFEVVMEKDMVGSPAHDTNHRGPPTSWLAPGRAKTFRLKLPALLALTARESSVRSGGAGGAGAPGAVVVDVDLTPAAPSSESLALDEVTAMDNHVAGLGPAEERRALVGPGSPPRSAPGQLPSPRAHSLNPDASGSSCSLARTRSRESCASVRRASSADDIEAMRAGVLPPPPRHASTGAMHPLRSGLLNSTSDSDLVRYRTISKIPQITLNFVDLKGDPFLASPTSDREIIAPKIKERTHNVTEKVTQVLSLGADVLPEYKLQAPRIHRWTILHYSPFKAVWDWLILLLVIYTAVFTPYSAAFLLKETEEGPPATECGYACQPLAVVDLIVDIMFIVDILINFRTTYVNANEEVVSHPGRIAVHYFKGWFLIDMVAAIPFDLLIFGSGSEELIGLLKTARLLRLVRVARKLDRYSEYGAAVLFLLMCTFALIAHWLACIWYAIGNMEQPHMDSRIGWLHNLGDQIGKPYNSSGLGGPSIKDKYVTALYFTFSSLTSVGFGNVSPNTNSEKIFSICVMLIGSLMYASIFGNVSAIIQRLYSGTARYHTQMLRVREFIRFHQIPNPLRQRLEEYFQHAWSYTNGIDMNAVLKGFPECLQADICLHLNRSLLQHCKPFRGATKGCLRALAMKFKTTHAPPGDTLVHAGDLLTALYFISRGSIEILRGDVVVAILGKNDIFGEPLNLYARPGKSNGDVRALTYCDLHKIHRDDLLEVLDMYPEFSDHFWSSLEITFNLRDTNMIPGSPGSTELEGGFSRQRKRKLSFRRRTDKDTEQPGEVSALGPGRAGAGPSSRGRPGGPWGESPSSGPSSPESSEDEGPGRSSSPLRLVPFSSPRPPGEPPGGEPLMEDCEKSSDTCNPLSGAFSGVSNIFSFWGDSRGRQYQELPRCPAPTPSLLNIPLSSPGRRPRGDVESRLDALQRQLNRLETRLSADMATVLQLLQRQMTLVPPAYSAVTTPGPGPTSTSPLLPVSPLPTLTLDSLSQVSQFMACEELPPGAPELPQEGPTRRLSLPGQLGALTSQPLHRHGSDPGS

Question: What does the source list for `C[C@@H]1CN(c2ccc(C#N)c3ncccc23)C[C@H](CN2CCN(c3ccncc3)CC2)O1` [ER-888286, reference compound]?
Answer: safety window (hERG IC20/TLR7/8/9 IC50) compared to the compounds of this invention (hERG channel; result in words): much narrower safety window; hERG IC20/TLR7 IC50 (hERG channel; safety ratio): 0.3; hERG IC20/TLR9 IC50 (hERG channel; safety ratio): 0.2; inhibition at 5 min, 10 µM (CYP2C9): 29.5%; IC50 (hTLR9): > 2000 nM; inhibition at 5 min, 10 µM (CYP3A4): 5.5%
